# Results taken from the NIST ThermoML archive (doi:10.1021/acs.jced.8b00451).
# ± gives the expanded uncertainty stated by the source.
# Settings: Liquid, Ebulliometric method (Recirculating still)
Compound,vapor or sublimation pressure (394.7 K) [kPa],vapor or sublimation pressure (434 K) [kPa],vapor or sublimation pressure (434.1 K) [kPa],vapor or sublimation pressure (444.3 K) [kPa],vapor or sublimation pressure (459.3 K) [kPa],vapor or sublimation pressure (469.3 K) [kPa],vapor or sublimation pressure (479.4 K) [kPa]
O=Cc1ccco1 [2-furaldehyde],30 ± 0.2,–,–,–,–,–,–
CC1CCC(=O)O1 (configuration not stated) [γ-valerolactone],–,29.9 ± 0.2,30 ± 0.2,40.6 ± 0.2,61.7 ± 0.2,80 ± 0.2,102.6 ± 0.3
